Usually Ki stands for the dissociation constant of the complex between target and ligand, obtained from inhibition or displacement.

These results are taken from article PMC2762440 (Journal of medicinal chemistry, 2009).

The structures appear in SMILES notation.

One data set relates to ICR mice. The experiment in a line: Forced-swim test in ICR mice. In kind it is in vivo, mouse. The note with it: for immobility in the forced-swim test vs vehicle: 3 mg/kg, P < 0.05; for duration of immobility in the forced-swim test: doses of 0.3 and 3 mg/kg.
The next data set has as its system Balb/c mice. Briefly: Forced-swim test in Balb/c mice. It is filed as in vivo, mouse. The conditions noted are these: for duration of immobility in the forced-swim test: acute, i.p. 30 min prior; for immobility in the forced-swim test vs vehicle: subchronic, i.p. 23, 5 and 1 hr prior.
A further data set concerns the target Human PDE4D3 (Homo sapiens, UniProt Q08499). The experiment in a line: Inhibition of cAMP hydrolysis by recombinant PDE4D3. It is filed as biochemical. The note with it: read-out: Human PDE4D3 Ki, recombinant enzyme.
The nature of data set [1]: Human liver microsome stability assay. It is filed as in vitro ADME. The conditions noted are these: human liver microsomes + NADPH, 40 µM compound, 37 °C. (Microsomes from liver hold many membrane-bound enzymes, among them those of drug oxidation.)
A short description of data set [2]: Mouse liver microsome stability assay. It is filed as in vitro ADME. The note with it: mouse liver microsomes + NADPH, 40 µM compound, 37 °C.
[3] abbreviates: ICR mice, acute, i.p. 30 min prior.

Sequence of Human PDE4D3 (Q08499 1-673 isoform Q08499-2): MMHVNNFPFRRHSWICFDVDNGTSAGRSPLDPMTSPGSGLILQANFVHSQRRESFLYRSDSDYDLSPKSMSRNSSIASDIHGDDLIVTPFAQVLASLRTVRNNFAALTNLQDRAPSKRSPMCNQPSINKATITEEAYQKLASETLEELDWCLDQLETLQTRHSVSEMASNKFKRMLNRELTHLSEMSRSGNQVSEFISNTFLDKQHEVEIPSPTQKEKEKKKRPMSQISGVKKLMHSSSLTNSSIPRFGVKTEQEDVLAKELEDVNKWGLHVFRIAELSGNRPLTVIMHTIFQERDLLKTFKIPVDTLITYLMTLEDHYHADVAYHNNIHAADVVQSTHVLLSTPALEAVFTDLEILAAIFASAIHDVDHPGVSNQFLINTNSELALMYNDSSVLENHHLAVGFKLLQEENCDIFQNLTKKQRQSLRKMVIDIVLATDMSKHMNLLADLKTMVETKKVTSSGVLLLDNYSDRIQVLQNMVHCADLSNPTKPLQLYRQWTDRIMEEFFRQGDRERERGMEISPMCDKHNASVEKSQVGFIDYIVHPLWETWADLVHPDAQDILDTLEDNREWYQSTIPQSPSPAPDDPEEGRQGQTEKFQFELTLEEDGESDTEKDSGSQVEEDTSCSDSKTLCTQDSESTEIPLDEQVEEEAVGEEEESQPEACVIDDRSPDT

As for `COc1ccc(F)cc1CCC1CCC(CCN)O1` (stereo not drawn) [Compound 14, 2-{5-[3-(5-Fluoro-2-methoxy-phenyl)-ethyl]-tetrahydro-furan-2-yl}-ethylamine], the “immobility in the forced-swim test” value in the data set with ICR mice (ICR mice, acute, i.p. 30 min prior, 10 and 30 mg/kg) is reported as “tended to decrease immobility, but this effect was not statistically significant”. In addition, in the data set with Balb/c mice (10 mg/kg), the “duration of immobility in the forced-swim test” value (“duration of immobility” below) was “did not markedly alter the duration of immobility” and the “immobility in the forced-swim test vs vehicle” value (“immobility … vs vehicle” for short) is listed as “did not change immobility”.
Regarding `COc1ccc(F)cc1CCCC1CCC(CCN)O1` (stereo not drawn) [Compound 15, 2-{5-[3-(5-Fluoro-2-methoxy-phenyl)-propyl]-tetrahydro-furan-2-yl}-ethylamine], the “duration of immobility” value in the data set with Balb/c mice (10 mg/kg) is reported as “did not markedly alter the duration of immobility”. The “immobility … vs vehicle” value in the data set on Balb/c mice (1 mg/kg) is “did not change immobility”.
As for `COc1ccc(C2=NNC(=O)C3CC=CCC23)cc1OC` (stereo not drawn) [Compound 19, 4-(3,4-Dimethoxy-phenyl)-4a,5,8,8a-tetrahydro-2H-phthalazin-1-one, reference compound], the Ki on Human PDE4D3 is 6.3 nM. In the data set with ICR mice (setting [3]), the “immobility … vs vehicle” value is recorded as “significantly decreased immobility” and the “duration of immobility” value is given as “decreased duration of immobility in a dose-dependent manner”.
On to `COc1ccc(F)cc1CCC1CCC(CCNCCCCCN2N=C(c3ccc(OC)c(OC)c3)[C@H]3CC=CC[C@H]3C2=O)O1` (stereo partly drawn) [Compound 21], for which, in data set [1], the “HLM t1/2” value is “not detectably metabolized”. Besides, in the data set with ICR mice (setting [3]), the “immobility … vs vehicle” value is recorded as “significantly decreased immobility” and the “duration of immobility” value was “decreased duration of immobility in a dose-dependent manner”. For the same compound, in the data set on Balb/c mice (1 mg/kg), the “immobility … vs vehicle” value is reported as “did not change immobility”.
Take `COc1ccc(F)c(CCCC2CCC(CCNCCCCCN3N=C(c4ccc(OC)c(OC)c4)[C@H]4CC=CC[C@H]4C3=O)O2)c1` (stereo partly drawn) [Compound 22]: the “HLM t1/2” value in data set [1] is “No detectable metabolic instability”.
Turning to `CNCCC1CCC(CCc2cc(F)ccc2OC)O1` (stereo not drawn) [Compound 24], the “MLM t1/2” value in data set [2] is reported as 58.5 min.
On to `COc1ccc(C2CNC(=O)C2)cc1OC1CCCC1` (stereo not drawn) [Rolipram, reference compound], for which, in the data set on ICR mice (acute treatment 0.5 mg/kg, data not shown), the “effect in the forced-swim test” value is reported as “did not alter FST behavior”.
